biological target: T1, human S6K1 (RPS6KB1) protein, residues 1–421 with the T412E mutation (Homo sapiens, UniProt P23443, T412E); assay: Kinase mobility shift assay; type: biochemical; details: S6K1 residues 1–421, T412E mutation; 2 nM enzyme; 30 min pre-incubation; ATP 0.5 mM; FL-Peptide 26 1.5 μM
T1 construct: the human S6K1 (RPS6KB1) protein, residues 1–421 with the T412E mutation; purchased Carna Biosciences (Kobe, Japan)
Method: The mobility shift assay was performed as reported. Briefly, the reaction buffer consisted of 50 mM Hepes (pH 7.4), containing 10 mM MgCl2, 0.01 %(w/v) Brij-35, 1 mM dithiothreitol (DTT), 1 %(v/v) Protease Inhibitor Cocktail Set V [Calbiochem (EMD Millipore), Darmstadt, Germany], 1 %(v/v) Phosphatase Inhibitor Cocktail Set III [Calbiochem (EMD Millipore), Darmstadt, Germany], and 0.6 %(v/v) DMSO. […] The S6K1 protein (final concentration of 2 nM) in the reaction buffer was first incubated with different concentrations of the compounds (0–10 μM) for 30 min. […] The kinase reactions were performed at room temperature, and stopped by the addition of termination buffer [50 mM Hepes buffer (pH 7.4), containing 140 mM EDTA and 0.01 %(w/v) Brij-35]. The phosphorylated and unphosphorylated peptides thus obtained were separated and quantified with a Lab-Chip EZ Reader II (PerkinElmer, MA). Data were fitted using a sigmoidal dose–response regression algorithm in GraphPad Prism (GraphPad Software, La Jolla, CA).

T1 sequence (P23443 1-421 T412E): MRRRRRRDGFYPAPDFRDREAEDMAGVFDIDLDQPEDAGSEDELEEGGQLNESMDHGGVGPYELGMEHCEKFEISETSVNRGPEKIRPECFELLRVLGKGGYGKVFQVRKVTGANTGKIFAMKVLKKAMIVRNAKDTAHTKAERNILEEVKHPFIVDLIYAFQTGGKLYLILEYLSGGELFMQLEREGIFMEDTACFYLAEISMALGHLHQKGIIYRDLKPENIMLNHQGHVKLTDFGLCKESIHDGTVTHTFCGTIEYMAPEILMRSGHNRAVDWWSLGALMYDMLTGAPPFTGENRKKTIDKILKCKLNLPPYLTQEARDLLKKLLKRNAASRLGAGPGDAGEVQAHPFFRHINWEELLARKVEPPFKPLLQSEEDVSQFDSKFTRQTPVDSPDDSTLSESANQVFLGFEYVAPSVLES

Compound	IC50
NS(=O)(=O)c1ccc(NC(=O)COC(=O)c2c3c(nc4ccccc24)CCCCC3)cc1 [Compound F176, 2-oxo-2-[(4-sulfamoylphenyl)amino]ethyl 7,8,9,10-tetrahydro-6H-cyclohepta[b]quinoline-11-carboxylate]	232 nM
CC1CCc2nc3ccccc3c(C(=O)OC(C)C(=O)Nc3ccc(S(N)(=O)=O)cc3)c2C1 (centres unmarked) [Compound F177, 1-oxo-1-[(4-sulfamoylphenyl)amino]propan-2-yl-2-methyl-1,2,3,4-tetrahydroacridine-9-carboxylate]	567 nM
O=C(Nc1cccc(C(F)(F)F)c1)C1CCN(c2ncnc3[nH]cnc23)CC1 [Compound F179, 1-(9H-purin-6-yl)-N-[3-(trifluoromethyl)phenyl]piperidine-4-carboxamide]	206 nM

Molecules with a lower IC50, results first:

IC50	Compound
81 nM	c1ccc2[nH]c(C3CCN(c4ncnc5[nH]ncc45)CC3)nc2c1 [Compound F108, 4-[4-(1H-benzimidazol-2-yl)piperidin-1-yl]-1H-pyrazolo[3,4-d]pyrimidine]
33 nM	C1=C(c2c[nH]c3ccccc23)CCN(c2ncnc3[nH]ncc23)C1 [Compound F109, 4-[4-(1H-indol-3-yl)-3,6-dihydropyridin-1(2H)-yl]-1H-pyrazolo[3,4-d]pyrimidine]

Source: article PMC4125821, “Crystal structures of the S6K1 kinase domain in complexes with inhibitors” (Journal of Structural and Functional Genomics, 2014)
